In article PMC7917821, “In Vitro and In Silico Studies of Soluble Epoxide Hydrolase Inhibitors from the Roots of Lycopus lucidus” (Plants, 2021):
Read-outs that look alike come from different tables or passages of the source.

How the values were obtained:
sEH [1] = biological target: T1, sEH (Homo sapiens, UniProt P34913); assay: Enzyme kinetics on sEH (Lineweaver–Burk and Dixon plots); format: biochemical; conditions: for Ki: Dixon plot; for sEH inhibition Type: Lineweaver–Burk plots, various substrate concentrations
T1 construct: purchased Cayman 10011669
T1 sequence (P34913 1-555): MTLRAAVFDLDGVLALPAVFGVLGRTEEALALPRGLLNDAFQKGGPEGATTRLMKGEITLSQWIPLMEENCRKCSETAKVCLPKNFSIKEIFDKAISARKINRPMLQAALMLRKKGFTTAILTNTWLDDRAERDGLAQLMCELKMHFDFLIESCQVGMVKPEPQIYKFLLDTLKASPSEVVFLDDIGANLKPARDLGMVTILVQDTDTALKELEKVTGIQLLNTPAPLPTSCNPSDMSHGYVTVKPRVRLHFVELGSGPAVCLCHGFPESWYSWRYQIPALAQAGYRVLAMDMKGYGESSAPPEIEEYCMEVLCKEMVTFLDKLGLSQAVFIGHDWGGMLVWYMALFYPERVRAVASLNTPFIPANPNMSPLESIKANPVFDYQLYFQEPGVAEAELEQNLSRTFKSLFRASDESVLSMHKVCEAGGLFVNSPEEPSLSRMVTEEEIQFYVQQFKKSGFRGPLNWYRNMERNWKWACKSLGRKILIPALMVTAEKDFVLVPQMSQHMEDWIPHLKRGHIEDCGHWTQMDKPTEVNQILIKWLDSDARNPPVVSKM
Description: The enzymatic kinetics of these compounds (7–10) were determined by calculating the initial velocity of each inhibitor at various substrate concentrations (0.19–5 mM) (Figure 2). […] This mixed type had bound to allosteric sites, a site different from the active site. In addition, the inhibitory constant values (Ki) were calculated using the Dixon plot revised from the Lineweaver–Burk plot.
(§1) The inhibitory activities on the sEH were measured according to the modified methods in previous papers. PHOME was used as a substrate to examine the inhibitions of sEH, which was determined using a hydrolysis reaction of PHOME. sEH was diluted in Bis Tris–HCl buffer (25 mM containing 0.1 mg/mL BSA, pH 7.0) at 12.15 ng/mL. In a 96-well plate, 130 μL of recombinant human sEH, 20 μL of sample, and 50 μL of 40 mM PHOME were added. The absorbance was measured at excitation filter 330 nm and emission filter 465 nm for 30 min at an interval of 30 s after adding the last solution in a 96-well plate. All assays were performed in triplicate, using microplate reader (Tecan infinite F200, Grödig, Austria). Inhibitory activity (%) was calculated using the following equation:(1) Inhibitory Activity (%)=100−[Δsample / Δcontrol]×100 where Δcontrol and Δsample are the changed fluorescence […], respectively.

sEH [2] = biological target: T1, sEH; set-up: method as in PMID 26548595, PMID 32972033, doi:10.1039/C6RA04207D; conditions: earlier reports; cited from earlier work
sEH [3] = biological target: T1, sEH; assay: sEH inhibitory activity assay (fluorometric, PHOME substrate); format: biochemical; conditions: for IC50: PHOME substrate, triplicate, mean ± SD; for inhibition at 100 µM: read-out: sEH inhibitory activity
Description: The tests were conducted using a multi plate system of the fluorometric photometer at excitation and emission wavelengths of 330 and 465 nm, respectively. […] To identify potential inhibitors of sEH, all compounds were measured at 100 µM concentration.
as §1
The enzyme inhibition parameter IC50 was calculated by fitting hyperbola equations to the data using nonlinear regression of the plot using Sigma Plot (SPP Inc., Chicago, IL, USA.). The experimental results were performed in triplicate, and presented as the means ± SD.

Row | Ki (sEH [1]) [µM] | sEH inhibition Type (sEH [1]) | IC50 (sEH [3]) [µM] | inhibition at 100 µM (sEH [3]; at 100 µM concentration) [%] | inhibition at 100 µM (sEH [3]) [%] | SMILES | sEH inhibitory activity previously shown (sEH [2])
1 | 5.7 | mixed type inhibitor | 19.5 ± 4.1 | > 50 | – | COc1ccc(CCO[C@@H]2O[C@H](CO)[C@@H](OC(=O)/C=C/c3ccc(O)c(OC)c3)[C@H](O[C@@H]3O[C@@H](C)[C@H](O)[C@@H](O)[C@H]3O)[C@H]2O)cc1O [Compound 8, martynoside] | significant sEH inhibitory activity
2 | 7.6 | competitive inhibitors | 35.7 ± 2.1 | > 50 | – | COC(=O)[C@H]1c2c(/C=C/C(=O)O[C@H](Cc3ccc(O)c(O)c3)C(=O)O)ccc(O)c2O[C@@H]1c1ccc(O)c(O)c1 [Compound 10, 9″″-methyl lithospermate] | –
3 | – | – | 42.1 ± 4 | > 50 | – | C[C@H]1[C@H](C)CC[C@]2(C(=O)O)CC[C@]3(C)C(=CC[C@@H]4[C@@]5(C)CC[C@H](O)C(C)(C)[C@@H]5CC[C@]43C)[C@H]12 [Compound 3, ursolic acid] | significant sEH inhibitory activity
4 | – | – | 52 ± 1.9 | > 50 | – | COC(=O)[C@H](O)Cc1ccc(O)cc1 [Compound 6, latifolicinin C] | –
5 | 9.2 | competitive inhibitors | 16.8 ± 0.6 | > 50 | – | COC(=O)[C@@H](Cc1ccc(O)c(O)c1)OC(=O)/C=C/c1ccc(O)c(O)c1 [Compound 7, methyl rosmarinate] | –
6 | – | – | 67.8 ± 3.2 | – | > 50 | C=C(C)[C@@H]1CC[C@]2(C(=O)O)CC[C@]3(C)[C@H](CC[C@@H]4[C@@]5(C)CC[C@H](O)C(C)(C)[C@@H]5CC[C@]43C)[C@@H]12 [Compound 1, betulinic acid] | significant sEH inhibitory activity
7 | 1.9 | competitive inhibitors | 10.6 ± 3.2 | > 50 | – | COC(=O)[C@@H](Cc1ccc(O)c(O)c1)OC(=O)/C=C/c1ccc(O)c2c1[C@H](C(=O)OC)[C@@H](c1ccc(O)c(O)c1)O2 [Compound 9, dimethyl lithospermate] | –
